Source: ChEMBL document CHEMBL3596189, “Perspective: Challenges and opportunities in TB drug discovery from phenotypic screening” (Bioorg Med Chem, 2015)
In brackets after ≈: the same amount, converted by molar mass.

Tests used:
[1] = tested on: Mycobacterium tuberculosis; assay: Antimycobacterial activity against Mycobacterium tuberculosis assessed as inhibition of bacterial growth measured in glycerol-containing medium; assay type: functional
[2] = tested on: Mycobacterium tuberculosis; assay: Antimycobacterial activity against Mycobacterium tuberculosis infected in mouse assessed as reduction of lung bacterial load at 25 mg/kg, po; assay type: functional
[3] = tested on: Mycobacterium tuberculosis; assay: Antimycobacterial activity against Mycobacterium tuberculosis infected in mouse assessed as log reduction of lung bacterial load at 50 mg/kg administered for 4 weeks; assay type: functional
[4] = Volume of distribution in mouse; assay type: ADME, organism-based; details: in vivo
[5] = Elimination half life in mouse; assay type: ADME, organism-based; details: in vivo, read-out: beta t1/2 (converted)
[6] = Systemic clearance in mouse; assay type: ADME, organism-based; details: in vivo
[7] = Oral bioavailability in mouse; assay type: ADME, organism-based; details: in vivo

Row | Structure (SMILES) | MIC50 [1] | further results
1 | Cc1nc2ccccn2c1C(=O)NCc1ccccc1 | 0.2 µM (≈ 0.0531 µg/mL) | –
2 | Cc1ccc([C@H]2C[C@@H](C(F)(F)F)n3ncc(C(=O)NCc4ccc(F)cc4)c3N2)cc1 | 0.2 µM (≈ 0.0865 µg/mL) | log10cfu [2]: 3.5
3 | Cc1ccc(C(=O)N2CCOCC2)cc1Nc1nccn1-c1cc(NC2CC2)ncn1 | 0.04 µM (≈ 0.0168 µg/mL) | –
4 | Cc1ccc2nc(C)c(C(=O)NCc3ccc(-c4ccncc4)cc3)n2c1 | 0.01 µM (≈ 0.00356 µg/mL) | log10cfu [3]: 1
5 | Cc1ccc(CNC(=O)c2cnn3c2NC(c2ccccc2)CC3C(F)(F)F)cc1 (stereo unspecified) | 1.9 µM (≈ 0.787 µg/mL) | –
6 | CC(=O)Nc1ccc(C)c(Nc2nccn2-c2cc(NC3CC3)ncn2)c1 | 1 µM (≈ 0.363 µg/mL) | –
7 | CC1(C)CCC(Cc2cc(O)c(-c3ccccc3)c(=O)[nH]2)CC1 | 0.03 µM (≈ 0.00934 µg/mL) | –
8 | Cc1cc(C)c2cc(C(=O)NC3CCCCC3)[nH]c2c1 | 0.8 µM (≈ 0.216 µg/mL) | –
9 | CC(C)Cc1cc(O)c(-c2ccccc2)c(=O)[nH]1 | 2.2 µM (≈ 0.535 µg/mL) | –
10 | CC1(C)CCC(NC(=O)c2cc3c(Cl)cc(Cl)cc3[nH]2)CC1 | 0.02 µM (≈ 0.00679 µg/mL) | Vd [4]: 4.1 L/kg; half-life [5]: 306 min; clearance [6]: 18.1 mL/min/kg; bioavailability [7]: > 50%
